In US9381254B2, “Methods for preparing polymeric reagents” (Nektar Therapeutics, priority 2005, dated 2016):
Ends that are not written are not given here.

Columns and labels:
diabetic db/db mice = test: In-vivo study in mice of blood-glucose lowering effects of GLP-1 polymer conjugates; design: species or system mouse; conditions: for blood glucose-lowering effect: single subcutaneous dose (GLP-1 60, 120 μg; conjugates 420 μg), FIG. 14; for PD effect when compared to the 20 kiloDalton PEG conjugate: single subcutaneous dose 420 μg
Protocol: Male diabetic mice (BKS.Cg-+Lepr db/+Lepr db/01aHsd) were purchased from Harlan Laboratories, Ltd. (Jerusalem, Israel). The 8-9 week old animals (30-40 gm) were placed in mouse cages (two animals per cage), and allowed at least 48 hours of acclimatization before the start of the study.
Each compound was accurately weighed into a glass vial and dissolved in normal saline in order to prepare a concentration that would accommodate for the dose (based on GLP-1 equivalents) and the injection volume of 100 μL.
The study was divided into two phases: a feasibility phase and an evaluation phase.
In the feasibility phase, the feasibility of using diabetic db/db mice to test the effectiveness of GLP-1 was first evaluated. In carrying out the feasibility phase, several groups of mice were used wherein four mice were used in each group. Data on the baseline glucose levels were gathered for each mouse for 2-3 days prior to drug dosing. This was performed to identify any outliers in the group of animals. On the day of treatment (Day 0) each animal was weighed. A time 0 day blood sample (5 to 10 μL) was collected from the tail vein. The glucose level (mg/dL) was measured using a glucose analyzer. Each animal was then dosed subcutaneously (SC) below the skin on the back. […] The animals were then allowed to return into their cages. Blood samples of 5 to 10 μL (<0.5% of 2 mL blood volume for a 35 g mouse) were removed through a needle prick/capillary tube at the following time points: −3, −2, −1, 0, 0.04, 0.16, 0.33, 1.0, 1.16 days. Each collected blood sample was tested for its glucose level. At the end of the study, the animals were humanely euthanized by carbon-dioxide asphyxiation.
In the evaluation phase, the results from the feasibility phase were used to select the appropriate doses required to attain a sustained delivery of GLP-1 for a 3-5 day effect. In carrying out the evaluation phase, eight mice were used in each group. Data on the baseline glucose levels were gathered for each mouse three days prior to drug dosing. On the day of treatment (Day 0) each animal was weighed. A time 0 day blood sample (5 to 10 μL) was collected from the tail vein. The glucose level (mg/dL) was measured using a glucose analyzer. Each animal was then dosed subcutaneously (SC) below the skin on the back. […] The animals were then allowed to return into their cages. Blood samples of 5 to 10 μL (<0.5% of 2 mL blood volume for a 35 g mouse) were removed through a needle prick/capillary tube at the following time points: −3, −2, −1, 0, 0.04, 0.16, 0.33, 0.5, 1, 2, 3, 6 days. Each collected blood sample was tested for its glucose level. Food was withdrawn from the animals for the first four hours after dosing. At the end of the study, the animals were humanely euthanized by carbon-dioxide asphyxiation.

[1] = Cleavable nature of GLP-1 conjugate in aqueous media (50 mM Tris, pH 10, overnight at 50° C.), SDS-PAGE / reverse phase HPLC; type: physicochemical; conditions: 50 mM Tris solution
Protocol: The column was a 100 mm×2.1 mm ID Betasil C18 column with 5 μm particles, available from Thermo Electron Corp. Reverse phase HPLC used a mobile phase of 0.1% TFA in deionized water (solution C) and 0.1% TFA in acetonitrile (solution D) conducted at 37° C. The gradient used for reverse phase HPLC was as follows: for time 0.00 to 20.00 minutes, 35% of the mobile phase contained solution D; for time 20.00 to 21.00 minutes, 55% of the mobile phase contained solution D; for time 21.00 to 23.00 minutes, 80% of the mobile phase contained solution D; for time 23.00 to 24.00 minutes, 80% of the mobile phase contained solution D; for time 24.00 to 25.00 minutes, 35% of the mobile phase contained solution D; for time 25.00 and above, 35% of mobile phase contained solution D.

Substance: G2PEG2Fmoc20K-Lys-GLP-1: G2PEG2Fmoc20k-NHS covalently and releasably attached to a lysine position of GLP-1 (HAEGTFTSDVSSYLEGQAAKEFIAWLVKGR; ends and bridges not checked; also: releasable G2PEG2Fmoc20K PEG on a lysine; UniProt P01275 98-127, looked up)
- blood glucose-lowering effect (diabetic db/db mice): confirmed

Substance: G2PEG2Fmoc40K-Lys-GLP-1: G2PEG2Fmoc40k-NHS covalently and releasably attached to a lysine position of GLP-1 (HAEGTFTSDVSSYLEGQAAKEFIAWLVKGR; ends and bridges not checked; also: releasable G2PEG2Fmoc40K PEG on a lysine; UniProt P01275 98-127, looked up)
- PD effect when compared to the 20 kiloDalton PEG conjugate (diabetic db/db mice): small but extended PD effect
- blood glucose-lowering effect (diabetic db/db mice): confirmed

Substance: G2PEG2Fmoc40k-N^ter-GLP-1
- release of GLP-1 from the conjugate [1]: complete release
- PD effect when compared to the 20 kiloDalton PEG conjugate (diabetic db/db mice): small but extended PD effect

Substance: Glucagon-like Peptide I (7-36, “GLP-1”) [reference compound]
- blood glucose-lowering effect (diabetic db/db mice): confirmed
- clearance from the mouse (from pharmacodynamic measurements) (diabetic db/db mice; subcutaneous): cleared rapidly
